From patent US5232933A, “Method for treatment of neurodegenerative diseases” (R. J. Reynolds Tobacco Company, priority 1992, dated 1993)

Molecular target: high affinity nicotinic receptors
Assay: Inhibition of L-[3H]nicotine binding to mouse brain membranes
Parameters: species or system Mice (DBA strain)
Details: 2 hr incubation at 4° C., Ki calculated from IC50 by method of Cheng
Experimental: Mice (DBA strain) were maintained on a 12 hour light/dark cycle and were allowed free access to water and food supplied by Wayne Lab Blox, Madison, Wis. Animals used in the present studies were 60 to 90 days of age and weighed 20 to 25 g. Brain membrane preparations were obtained from pooled brain tissue of both males and females.
Mice were killed by cervical dislocation. Brains were removed and placed on an ice-cold platform. […] Protein was determined by the method of Lowry, et al., J. Biol. Chem., Vol. 193, pp. 265-275 (1951), using bovine serum albumin as the standard.
The binding of L-[^3 H]nicotine was measured using a modification of the method of Romano, et al., Science, Vol 210 pp. 647-650 (1980) as described previously by Marks, et al., Mol. Pharmacol., Vol. 30, pp. 427-436 (1986). The binding of L-[^3 H]nicotine was measured using a 2 hr. incubation at 4° C. […] Nonspecific binding was determined by inclusion of 10 μM nonradioactive nicotine in the incubations. The inhibition of L-[^3 H]nicotine binding by test compounds was determined by including one of eight different concentrations of the test compound in the incubation. […] Inhibition constant (Ki values) were calculated from the IC50 values using the method of Cheng, et al., Biochem. Pharmacol., Vol. 22, pp. 3099-3108 (1973). […]

Compound: c1ccc(C2CCCN2)nc1 (racemic) [alpha-nornicotine]
- Ki: 5.7 µM
